These results are taken from ChEMBL document CHEMBL5360581, “Discovery of a novel dual functional phenylpyrazole-styryl hybrid that induces apoptotic and autophagic cell death in bladder cancer cells” (Eur J Med Chem, 2023).

Data set [1] is described as follows: Toxicity in Zebrafish embryo assessed as oedema at 12.5 uM administered for 4 hrs post fertilization and measured after 3 days post fertilization. The arrangement: species or system Danio rerio. To be noted: in vivo, 72 h, time 3 day.
A short description of data set [2]: Selectivity index, ratio of IC50 for cytotoxicity against human NHDF cells to IC50 for cytotoxicity against human EJ-28 cells.
Data set [3] has as its system EJ-28. The experiment in a line: Induction of cell cycle arrest in human EJ-28 cells assessed as accumulation of cells at sub-G0/G1 phase at 1.25 uM incubated for 48 hrs by propidium iodide staining based flow cytometry (reference value: 48%). In kind it is functional.
Data set [4] concerns EJ-28. The experiment in a line: Induction of autophagy in human EJ-28 cells assessed as upregulation of LC3B-I expression at 5 to 12.5 uM incubated for 24 to 72 hrs by Western blot analysis. The format is functional, cell-based. The following applies: dose 5-12.5 µM, time 24-72 hrs. (In general: A western blot detects proteins with antibodies after separation by electrophoresis.)

The subject of a further data set is MCF7. Put plainly: Cytotoxicity against human MCF7 cells assessed inhibition of cell growth incubated for 72 hrs by MTT assay. In kind it is functional, cell-based. The following applies: MCF7, 72 h. For orientation: Tetrazolium dyes change colour on reduction, which living cells bring about.
The nature of data set [5]: Toxicity in Zebrafish embryo assessed as mild bradycardia at 50 uM administered for 4 hrs post fertilization and measured after 3 days post fertilization. Further details: species or system Danio rerio. To be noted: in vivo, 72 h, time 3 day.
Data set [6] has as its system EJ-28. The experiment in a line: Induction of autophagy in human EJ-28 cells assessed as upregulation of AKT expression at 5 to 12.5 uM incubated for 24 hrs by Western blot analysis. In kind it is functional, cell-based. To be noted: dose 5-12.5 µM.
A short description of data set [7]: Toxicity in Zebrafish embryo assessed as mortality at 12.5 to 50 uM administered for 4 hrs post fertilization and measured after 72 hours post fertilization. The arrangement: species or system Danio rerio. The following applies: in vivo, dose 12.5-50 µM.
Data set [8] relates to EJ-28. The experiment in a line: Induction of autophagy in human EJ-28 cells assessed as upregulation of Atg7 expression at 5 to 12.5 uM incubated for 24 to 72 hrs by Western blot analysis. The format is functional, cell-based. The following applies: dose 5-12.5 µM, time 24-72 hrs.
Data set [9] has as its system EJ-28. Put plainly: Induction of apoptosis in human EJ-28 cells assessed as upregulation of cleaved caspases-8 expression by Western blotting analysis. In kind it is functional, cell-based. To be noted: time 24-72 hrs.
A short description of data set [10]: Toxicity in Zebrafish embryo assessed as delay in hatching at 12.5 to 50 uM administered for 4 hrs post fertilization and measured after 72 hours post fertilization. The arrangement: species or system Danio rerio. To be noted: in vivo, dose 12.5-50 µM.
Data set [11] relates to EJ-28. Put plainly: Induction of apoptosis in human EJ-28 cells incubated for 24 to 72 hrs by AnnexinV-FITC/propidium iodide staining based flow cytometry analysis. The format is functional, cell-based. The following applies: dose 1.25-10 µM, time 24-72 hrs. On the technique in general: A flow cytometer gives signals particle by particle.

The source made the active and inactive calls. The rule behind the calls is not given here.

As usually defined, the IC50 is the point on the concentration scale where inhibition reaches its midpoint. A higher IC50 goes with weaker potency.

Take `O=[N+]([O-])c1cccc(/C=C/c2cc(-c3cc(Cl)ccc3O)n(-c3ccccc3)n2)c1`: the Activity result was “Non-Toxic” in data set [1]; 53% in the data set on EJ-28 [3]; “Toxic” in [5]; “Non-Toxic” in data set [7]; “Dose-Dependent Effect” in the data set on EJ-28 [9]; “Non-Toxic” in [10]. In the data set with EJ-28 [11], the Activity entry is “Dose-Dependent Effect”. For the same molecule, the “Ratio IC50” value in [2] was 2.6. Besides, the outcome in the data set with EJ-28 [4] and in the data set on EJ-28 [6] was Active. The molecule further displayed an IC50 in the data set with MCF7 of 8.8 µM. The outcome in the data set on EJ-28 [8] was inactive.
